Legend:
α-syn = target: T1, α-syn (Homo sapiens, UniProt P37840); assay: In vitro α-syn aggregation kinetics (ThT fluorescent labeling); type: biochemical; settings: L-NIBC only, 1.0 and 10.0 ppm; 35 μM α-syn, 37° C.
T1 construct: purchased Bachem Corp
Description: Thioflavin T (abbreviation: ThT) is a dye for dyeing amyloid fibers specifically. […] When it encounters amyloid polypeptide or protein with a fiber structure, it will immediately couple with the amyloid polypeptides or proteins and its fluorescence intensity will increase exponentially. For this reason, ThT is widely used as markers to monitor amyloidosis of peptides or proteins. This embodiment utilizes ThT fluorescent labeling method to monitor the kinetics process of fibrosis aggregation of α-syn with the existence of AuCs. The specific experiment method was as follows:
Pretreatment of α-syn monomers: Freeze-dried powder (Bachem Corp.) of α-syn was dissolved in HFIP to obtain a 1 g/L α-syn solution. The solution was incubated at room temperature for 2-4 h after sealing, then blowed to dry HFIP by high-purity nitrogen in a fume hood. […]
Sample preparation and detection: Ligand-modified AuCs in different concentrations listed in Table 1 were added to 35 μM α-syn PBS solutions respectively, and incubated continuously in a 96-well plate at 37° C., by ThT fluorescent labeling method, and were monitored the fluorescence intensity by microplate reader once every 10 minutes. The kinetic process of α-syn aggregation was characterized through the change of fluorescence intensity of ThT. […]

Aβ(1-40) = target: T2, Aβ(1-40) (Homo sapiens, UniProt P05067); assay: AFM topography of Aβ(1-40) after coincubation for 48 h; type: biochemical; settings: coincubated for 48 h
T2 construct: Freeze-dried powder of amyloid polypeptide Aβ(1-40) (Invitrogen Corp.); purchased Invitrogen Corp
Protocol: Panel A is the AFM topography after Aβ(1-40) was incubated alone for 48 h. Panel B is an AFM topography after Aβ(1-40) was coincubated with L-NIBC for 48 h. Panel C and panel D are AFM topographies after Aβ(1-40) was coincubated with gold nanoparticles with an average particle size of 6.0 nm and 3.6 nm respectively (modified with L-NIBC) for 48 h. And panel E is an AFM topography after Aβ(1-40) was coincubated with AuCs in an average particle size of 1.8 nm (modified with L-NIBC) for 48 h.

[1] = test system: SH-SY5Y neuroblastoma cell line; assay: Aβ induced AD cell model, cell viability by CCK-8; type: cell-based; settings: 0.01-20 ppm (L-NIBC 20 ppm); 20 μM Aβ(1-40), 24 h
Protocol: The cell viability was used as an index in the experiment of this embodiment. […] The cells used in the experiment were SH-SY5Y neuroblastoma cell line. […] Specific method:
1) SH-sy5y cells (cells had passed to the sixth generation) in logarithmic growth phase were diluted with complete medium (MEM+10% FBS+1% penicillin-streptomycin) to get a cell suspension in a density of 5×10^4/mL. The suspension was inoculated 200 μL per well into a 96-well plate, and cultivated in an incubator with 5% CO2 at 37° C. A sample was added when the cells attached to the wells.
2) 100 μL ligand-modified AuCs samples or ligand-modified gold nanoparticles samples, at different particle sizes and at concentrations of 0.04 ppm, 0.4 ppm, 4 ppm, 20 ppm, 40 ppm and 80 ppm respectively, which were dissolved by maintenance medium (MEM+2% FBS+1% penicillin-streptomycin) were added into the incubated suspension obtained from Step 1). After incubating in the incubator for 2 h, 100 μL 80 μM Aβ(1-40) was added, and then the mixture was incubated in the incubator for 24 h. […] The culture medium was removed, maintenance medium (MEM) containing 10% CCK-8 at 100 μL/well was added and was incubated for 4 h, the absorbance of each well at 450 nm was measured to reflect the prevention and treatment effects of ligand-modified AuCs on Aβ(1-40) lesion.

T2 sequence (P05067 672-711 limits assumed): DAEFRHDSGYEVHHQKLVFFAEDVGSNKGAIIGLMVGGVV

CC(C)C(=O)N[C@@H](CS)C(=O)O [L-NIBC, N-isobutyryl-L-cysteine]
effect on kinetics of α-syn aggregation (α-syn): did not have an obvious effect
Aβ(1-40) fibers in AFM topography (Aβ(1-40)): no obvious effect on the formation of Aβ(1-40) fibers
effect on cell viability in Aβ induced AD cell model [1]: did not improve cell viability
